US20210198365A1, “COMBINATION PRODUCT FOR THE TREATMENT OF CANCER” (Debiopharm International S.A., priority 2017, published 2021)

What was measured:
MBT-2 bladder cancer = experiment: Subcutaneous MBT-2 mouse bladder cancer syngeneic model; type: in vivo; conditions: anti-PD-L1 5 mg/kg i.p. bi-weekly; Debio 1143 100 mg/kg p.o. QD1-5; alone or combined, 3 weeks
Procedure: FIG. 3: Anti-tumor activity of Debio 1143, anti-PD-L1 antibody, and their combination in the subcutaneous MBT-2 mouse bladder cancer syngeneic model.
The anti-tumor activity of an anti-PD-L1 antibody (5 mg/kg BIW i.p.; clone 10F.9G2, BioXcell) was tested either alone or in combination with Debio 1143 (100 mg/kg QD1-5 p.o.) in MBT-2 immunocompetent syngeneic mouse model of bladder cancer in C3H/HeNCrl mice over 3 weeks (see, for example, Shimazui et al., 2013. Int J Oncol. 42(2):543-8). Each mouse was inoculated subcutaneously at the right flank region with MBT-2 tumor cells (2×10^5) in 0.1 ml of PBS for tumor development. The treatments were started when the mean tumor size reached 101 mm^3 (n=8/group).

human T cells (PBMCs) = experiment: Ex vivo T-cell activation in human PBMCs upon CD3/CD28 stimulation; type: cell-based; conditions: 10 μM Debio 1143 added to anti-CD3/CD28 stimulation, 24 hours, cytometric analysis
Procedure: FIG. 1: Ex vivo T-cell activation in human peripheral blood mononuclear cells (PBMCs) upon CD3/CD28 stimulation and Debio 1143 treatment. N=1 healthy donor; values represent means of triplicates±SD. To test the effect of Debio 1143 on activation of human T cells, PBMCs freshly isolated from healthy human donors were stimulated ex vivo with anti-CD3/CD28 antibodies for 24 in the presence of 10 μM Debio 1143, or control treatments without stimulation and Debio 1143 incubation.

CN[C@@H](C)C(=O)N[C@H]1CN(C(=O)CC(C)C)CC[C@H]2CC[C@@H](C(=O)NC(c3ccccc3)c3ccccc3)N2C1=O [Debio 1143, (5S,8S,10aR)-N-benzhydryl-5-((S)-2-(methylamino)propanamido)-3-(3-methylbutanoyl)-6-oxodecahydropyrrolo[1,2-a][1,5]diazocine-8-carboxamide]
anti-tumor activity (MBT-2 bladder cancer): weak anti-tumor activity
T cell activation (percentage of IFNγ+ CD4+ and IFNγ+ CD8+ T-cells) (human T cells (PBMCs)): significant increase in T cell activation
